Assay results as given in patent US6368788B1 (priority 1987, dated 2002).

Key:
[1] = Thoracic cavity tumors: focal radiation therapy then L-Glu-L-Trp, clinical complications; format: in vivo, human; conditions: for Complications: Cardio-Pulm. / Complications: Mortality / Complications: Septic / Complications: Total: 5 × im 100 μg
Procedure: Surgical removal of thoracic tumors was followed in 38 patients by focal radiation therapy and then a course of L-Glu-L-Trp therapy consisting of 5 daily im injections of 100 μg L-Glu-L-Trp each. Only radiation therapy (and supportive antibiotic therapy) was administered as a control to 56 patients.

influenza = test: Influenza prophylaxis: incidence of acute respiratory diseases and influenza illness; format: in vivo, human
Procedure: A group of 452 persons were treated with daily dosages of 100 μg of L-Glu-L-Trp administered im on each of 5-10 consecutive days. A control group consisted of 250 untreated persons. The incidence of diagnosed respiratory diseases and influenza were recorded for both groups over the next four months.

[2] = system: antibiotic-resistant Staphylococci; test: Chronic skin diseases caused by antibiotic-resistant Staphylococci (Protocol A2); format: in vivo, human
[3] = system: peripheral blood lymphocytes; test: Protocol A3 Group 1A: chronic pyoderma; format: in vivo, human
Source text: Group 1A (a subgroup of Group 1) consisted of 32 patients (17 males and 15 females ranging from 17 to 42 years of age) with chronic pyococcal skin diseases including furunculosis, disseminated impetigo, multiple ecthymas, recurring osteofolliculitis, seborrhea adiposa, and concrete seborrhea complicated by vulgar or abscessing acne. Diseases were characterized by a chronic course or frequent relapses, and at the time of presentation for entry into the trial, all patients had received several prior courses of antibiotic therapy, none of which led to any detectable clinical improvement. Patients in Group 1A were randomly divided into two treatment groups, the first consisting of 16 patients treated with L-Glu-L-Trp according to Therapy A, below, and the second consisting of 16 patients treated (as a control) according to conventional therapeutic methods- i.e., Therapy B (below).
In treatment Protocol A, all patients received L-Glu-L-Trp in combination with antibiotics.
Therapy B (conventional therapy control): All patients in this protocol received the same antibiotics as in Therapy A and a nonspecific stimulatory agent, i.e., Thymogenin instead of L-Glu-L-Trp.
Local antibiotics were administered as follows: Ampicillin (4), oxacillin (4), Levomycetin (1), tetracycline (9), Rondomycin (2), deoxycycline (8), cephalexin (2), and Rifampicin (1).

Gingivitis = test: Gingivitis; design: species or system human; conditions: in vivo
Procedure: Patients were treated for gingival disease by subcutaneous administration of L-Glu-L-Trp into the area of the gingiva. […] Approximately 160 patients were studied, 80 patients were treated with L-Glu-L-Trp and an equal number were treated using conventional therapy (control). […] Normalization of immunologic indices and coagulation in the L-Glu-L-Trp treated patients was correlated with favorable clinical outcome.

T-lymphocyte function = test: Naval specialists with occupational immunologic impairments; format: in vivo, human; conditions: 3 daily intranasal doses of 100 mcg
Procedure: A clinical trial was conducted of 152 naval specialists (aged 20-40 years) with evidence of occupational immunologic impairments resulting from their exposure to radiation and occupational toxins in the Kosomolets nuclear submarine sinking off the coast of […]. L-Glu-L-Trp was evaluated for its possible effects on cellular and/or humoral immunity. Approximately 87% of the servicemen entered into the trial had moderate to severely impaired T-lymphocyte functional activity, (i.e., evidenced by decreased LMIR and blastogenesis with Con-A) and reduced neutrophil phagocytic activity (i.e., 30-40% of normal). Immune parameters were determined before and after a routine 21-24 day rest period, during a normal rest/recuperation and training rotation. Servicemen were divided into two groups, the first (control) group received no treatment, and the second (experimental) group of 88 servicemen received three consecutive daily intranasal doses of 100 mcg L-Glu-L-Trp.

Allogeneic skin grafts = test: Allogeneic skin grafts; design: species or system human; conditions: in vivo
Procedure: L-Glu-L-Trp was administered to 17 patients receiving allogeneic skin grafts. 27 patients receiving similar grafts and conventional care served as the control group. L-Glu-L-Trp was administered im as a single daily injection of 50-100 μg on each of 5 consecutive days, or alternatively, intranasally at a dose of 1 μg/kg daily for 5 days. Graft rejection was manifest in 8 of the control patients.

Bone fractures = test: Bone fractures; design: species or system human; conditions: in vivo
Procedure: L-Glu-L-Trp was applied to 44 patients with bone fractures of various origin. The control group comprised 28 patients. L-Glu-L-Trp was administered intramuscularly or intranasally in a single dose of 100 μg daily for 10 days.

[4] = Group 1A chronic pyoderma, after L-Glu-L-Trp Therapy (n = 16)

Substance: L-Glu-L-Trp
- Complications: Cardio-Pulm. ([1]; Esophagus, 22 patients): 1
- Complications: Mortality ([1]; Esophagus, 22 patients): 0
- Complications: Septic ([1]; Esophagus, 22 patients): 1
- Complications: Total ([1]; Esophagus, 22 patients): 2
- Complications: Cardio-Pulm. ([1]; Lung, 16 patients): 0
- Complications: Mortality ([1]; Lung, 16 patients): 0
- Complications: Septic ([1]; Lung, 16 patients): 0
- Complications: Total ([1]; Lung, 16 patients): 1
- Clinical outcome ([1]; human, in vivo): decreased the total number of complications
- Average term of hospitalization (influenza; L-Glu-L-Trp group): 6.2 days
- Incidence of lingering and complicated cases for in-patients, % (influenza; L-Glu-L-Trp group): 9.8%
- Need for hospitalization, % (influenza; L-Glu-L-Trp group): 30.6%
- Number of cases of temporary disablement per 100 persons/month (influenza; L-Glu-L-Trp group): 4.1
- Number of days of temporary disablement per 100 persons/month (influenza; L-Glu-L-Trp group): 26.5
- Overall incidence of lingering and complicated cases, % (influenza; L-Glu-L-Trp group): 3.9%
- Pneumonia rate/100 persons/month (influenza; L-Glu-L-Trp group): 0.20
- Sickness rate per 100 persons/month (influenza; L-Glu-L-Trp group): 9.8
- Average term of hospitalization, Ratio Control/TX (influenza; in vivo): 1.4
- Cases of temporary disablement, Ratio Control/TX (influenza; in vivo): 1.7
- Days of temporary disablement, Ratio Control/TX (influenza; in vivo): 2.2
- Incidence of lingering and complicated cases for in-patients, Ratio Control/TX (influenza; in vivo): 2.7
- Need for hospitalization, Ratio Control/TX (influenza; in vivo): 1.7
- Overall incidence of lingering and complicated cases, Ratio Control/TX (influenza; in vivo): 3.5
- Pneumonia rate, Ratio Control/TX (influenza; in vivo): 2.5
- Sickness rate, Ratio Control/TX (influenza; in vivo): 3.1
- Clinical outcome ([2]; L-Glu-L-Trp then individualized antibiotic): complete recovery in all patients
- Increase in antibiotic-sensitivity of the patients' Staphylococci ([2]; patients with secondary T-immunodeficiency): more than 100 fold
- B-Lymphocytes [3, 4]: 0.15 ± 0 ×10^9/L
- B-Lymphocytes % Normal Value [3, 4]: (31%)
- B-Lymphocytes (%) [3, 4]: 7 ± 3%
- Basophils (%) [3, 4]: 0.01 ± 0%
- Eosinophils (%) [3, 4]: 4.2 ± 1%
- Erythrocyte (sed. rate mm) [3, 4]: 13.1 ± 1 mm
- Erythrocytes [3, 4]: 4.2 ± 0.1 10^12/L
- IgA [3, 4]: 2.7 ± 1 g/L
- IgA % Normal Value [3, 4]: (143%)
- IgG [3, 4]: 16.2 ± 1 g/L
- IgG % Normal Value [3, 4]: (150%)
- IgM [3, 4]: 1 ± 0 g/L
- IgM % Normal Value [3, 4]: (65%)
- Leukocytes [3, 4]: 8.7 ± 0.5 ×10^9/L
- Leukocytes % Normal Value [3, 4]: (130%)
- Lymphocytes [3, 4]: 2.0 ± 0.2 ×10^9/L
- Lymphocytes % Normal Value [3, 4]: (71%)
- Lymphocytes, % [3, 4]: 25.9 ± 2.2%
- Monocytes, % [3, 4]: 4.5 ± 1%
- Neutrophils, % [3, 4]: 63.8 ± 4%
- T-Lymphocytes [3, 4]: 1.15 ± 0 ×10^9/L
- T-Lymphocytes % Normal Value [3, 4]: (68%)
- T-Lymphocytes (%) [3, 4]: 52.3 ± 5%
- T-helper [3, 4]: 0.92 ± 0.09 ×10^9/L
- T-helper % Normal Value [3, 4]: (70%)
- T-helper (%) [3, 4]: 45.4 ± 4.9%
- T-suppressor [3, 4]: 0.51 ± 0 ×10^9/L
- T-suppressor % Normal Value [3, 4]: (131%)
- T-suppressor (%) [3, 4]: 28.2 ± 4%
- Blast Transform., Con-A ([3]; Group 1A, L-Glu-L-Trp Therapy): 62.8 ± 8 % of PBL
- Blast Transform., PHA ([3]; Group 1A, L-Glu-L-Trp Therapy): 42.7 ± 7 % of PBL
- Blast Transform., Staph-A ([3]; Group 1A, L-Glu-L-Trp Therapy): 85.6 ± 9 % of PBL
- Clinical outcome (Gingivitis): arrest of gingival disease
- T-lymphocyte function, T4/T8 ratio, granulocyte lysosomal cation proteins (T-lymphocyte function): pronounced increase
- Clinical outcome (Allogeneic skin grafts): prevented infectious complications and delayed graft rejection
- Clinical outcome (Bone fractures): prevented the development of infectious complications, reduced pain syndrome and treatment duration
